{"source": "patent US12195427B2", "about": "“MASP-2 inhibitors and methods of use” (priority 2018, dated 2025)", "molecular_target": "MASP-2 CCP2-SP (Homo sapiens (Human), UniProt O00187)", "sequence (O00187 445-686)": "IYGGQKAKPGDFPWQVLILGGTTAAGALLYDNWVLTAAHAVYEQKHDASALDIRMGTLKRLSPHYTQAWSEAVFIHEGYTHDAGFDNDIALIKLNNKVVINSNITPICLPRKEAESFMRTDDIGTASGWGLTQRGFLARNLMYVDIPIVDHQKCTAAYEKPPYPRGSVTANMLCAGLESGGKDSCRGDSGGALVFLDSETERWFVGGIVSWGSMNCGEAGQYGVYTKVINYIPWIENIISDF", "sequence (O00187 364-432 partner)": "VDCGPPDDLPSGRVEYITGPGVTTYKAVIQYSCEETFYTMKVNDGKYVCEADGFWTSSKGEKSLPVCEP", "experiment": "MASP-2 co-crystallization, X-ray crystallography and structure analysis (H-bonds, van der Waals contacts);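 for Ligand-pharmacophore element distance, pharmacophore element C2: distance from averaged pharmacophore element to bound ligand; missing value means element absent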;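 for Ligand-pharmacophore element distance, pharmacophore element C3: distance from averaged pharmacophore element to bound ligand; missing value means element absent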;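 for Ligand-pharmacophore element distance, pharmacophore element C4: distance from averaged pharmacophore element to bound ligand; missing value means element absent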;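 for Ligand-pharmacophore element distance, pharmacophore element C5: distance from averaged pharmacophore element to bound ligand; missing value means element absent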", "design": "van der Waals contact distance, MASP-2 HIS 483 atom CD2 / van der Waals contact distance, MASP-2 HIS 483 atom NE2 / van der Waals contact distance, SER 654 C to compound atom / van der Waals contact distance, SER 654 O to compound atom / van der Waals contact distance, TRP 655 C to compound atom / van der Waals contact distance, MASP-2 GLY 528 atom CA / van der Waals contact distance TRP 655 atom CZ3 / van der Waals contact distance TRP 655 atom N / van der Waals contact distance TRP 655 atom CE3 / van der Waals contact distance GLY 656 atom C / van der Waals contact distance GLY 656 atom CA / van der Waals contact distance GLY 656 atom O / van der Waals contact distance, MASP-2 TYR 607 atom CD1 / van der Waals contact distance, MASP-2 PRO 606 atom O / d(C3,CA1) / d(CA1,N1)2 / d(H4,O1) / d(H4,O2) / d(O1,O2) / d(CA1,O2) / d(CA6,O1) / d(CA6,O2) / d(CA1,C5) / d(O2,H3) / d(N2,C2) / d(CA5,N2) / d(N2,C4) / d(N2,C6) / d(N2,CA3) / d(N2,O3) / d(O4,H2): unit not given beside the values", "settings": "for Ligand-pharmacophore element distance, pharmacophore element C2 / Ligand-pharmacophore element distance, pharmacophore element C3 / Ligand-pharmacophore element distance, pharmacophore element C4 / Ligand-pharmacophore element distance, pharmacophore element C5 / Ligand-pharmacophore element distance, pharmacophore element C6 / Ligand-pharmacophore element distance, pharmacophore element C7 / Ligand-pharmacophore element distance, pharmacophore element CA1 / Ligand-pharmacophore element distance, pharmacophore element CA2 / Ligand-pharmacophore element distance, pharmacophore element CA3 / Ligand-pharmacophore element distance, pharmacophore element CA4 / Ligand-pharmacophore element distance, pharmacophore element CA5 / Ligand-pharmacophore element distance, pharmacophore element CA6: Table A4-1", "text": "This example illustrates the preparation of recombinant MASP-2 protein, based on UniProt O00187, human mannan-binding lectin serine protease 2. Expression constructs for human MASP-2 CCP2-SP and CCP2-SP-6HIS were generated for recombinant expression in E. coli cells.\nTypically, crystallization hits were obtained by screening against […] 96-well crystallization reagent kits (GRAS6, GRAS2, Hampton Research; MORPHEUS, Molecular Dimensions; Wizard 1&2 Cryo, Rigaku Reagents) and crystal growth was inspected by optical microscopy. Crystals were used directly or further optimized for X-ray diffraction. Crystals were captured with cryogenic loops and dipped into liquid nitrogen directly or cryoprotected with a 20% glycerol in crystallization formulation before flash-cooling in liquid nitrogen.\nThereafter crystals are transferred once or twice for soaking within the crystallization solution containing the MASP-2 inhibitor.\nCrystals were diffracted with synchrotron X-rays of […] and X-ray diffraction datasets were collected at beamlines SSRL BL9-2, BL14-1, BL12-2 as well as ALS sector 5 using Dectris Pilatus and Eiger detectors. Structures were determined by molecular replacement using portions of the structure 1Q3X as search models and partially refined with Buster 2.10.2 or Refmac 5.8. […] When multiple ligand poses were observed, for instance arising from multiple molecules in the asymmetric unit or refined dual poses within the same molecule, only one pose was selected and analyzed.\nLigPlot+ calls these ‘nonbonded contacts’ or ‘hydrophobic contacts’. Despite the name, there are atom pairings that include possible H-bonds. Thus, in some instances, the Table A2 also contains H-bond interactions.", "key": {"[1]": {"settings": "Table A5-1 pharmacophore: distance between elements, S2/S1 region"}, "[2]": {"settings": "Table A5-2 pharmacophore distance, S3/S4 region"}, "[3]": {"settings": "Table A7-1, between pharmacophore elements of the bound compound"}, "[4]": {"settings": "Table A7-2, between pharmacophore elements of the bound compound"}, "[5]": {"settings": "Table A8-6, nearest protein atom in cell to the left"}}}
{"smiles": "C[C@H](NC(=O)[C@H]1Cc2c([nH]c3ccccc23)CN1)C(=O)NCc1ccc(C(=N)N)cc1.Cl.Cl", "note": "[1097_1]", "values": [{"measurement": "Ligand-pharmacophore element distance, pharmacophore element C2", "value": 0.69}, {"measurement": "Ligand-pharmacophore element distance, pharmacophore element C3", "value": 0}, {"measurement": "Ligand-pharmacophore element distance, pharmacophore element C4", "value": 0}, {"measurement": "Ligand-pharmacophore element distance, pharmacophore element C5", "value": 0}, {"measurement": "Ligand-pharmacophore element distance, pharmacophore element C6", "value": 0}, {"measurement": "Ligand-pharmacophore element distance, pharmacophore element C7", "value": 0}, {"measurement": "Ligand-pharmacophore element distance, pharmacophore element CA1", "value": 0.29}, {"measurement": "Ligand-pharmacophore element distance, pharmacophore element CA2", "value": 0}, {"measurement": "Ligand-pharmacophore element distance, pharmacophore element CA3", "value": 0}, {"measurement": "Ligand-pharmacophore element distance, pharmacophore element CA4", "value": 0}, {"measurement": "Ligand-pharmacophore element distance, pharmacophore element CA5", "value": 0.98}, {"measurement": "Ligand-pharmacophore element distance, pharmacophore element CA6", "value": 0}, {"measurement": "d(CA1,N1)", "setting": "[1]", "value": 3.53}, {"measurement": "d(CA1,O1)", "setting": "[1]", "value": 4.28}, {"measurement": "d(CA1,O2)", "setting": "[1]", "value": 4.28}, {"measurement": "d(H4,O1)", "setting": "[1]", "value": 3.88}, {"measurement": "d(H4,O2)", "setting": "[1]", "value": 3.35}, {"measurement": "d(O1,O2)", "setting": "[1]", "value": 3.32}, {"measurement": "d(CA5,N2)", "setting": "[2]", "value": 4.50}, {"measurement": "d(N2,C2)", "setting": "[2]", "value": 1.42}, {"measurement": "d(O2,H3)", "setting": "[2]", "value": 4.58}, {"measurement": "d(O2,N2)", "setting": "[2]", "value": 2.81}, {"measurement": "a(CA1, O1, O2)", "setting": "Table A6-1 pharmacophore angle", "value": 112.80}, {"measurement": "a(O1, O2, H4)", "setting": "Table A6-1 pharmacophore angle", "value": 125.81}, {"measurement": "A(N1, CA1, O1) a)", "setting": "Table A6-1 pharmacophore angle, all compounds with protonatable center N1 except Methyl-amino-pyridine", "value": 162.99}, {"measurement": "a(O1, O2, H3)", "setting": "Table A6-2 pharmacophore angle", "value": 152.91}, {"measurement": "a(O1, O2, N2)", "setting": "Table A6-2 pharmacophore angle", "value": 134.93}, {"measurement": "a(O2, N2, C2)", "setting": "Table A6-2 pharmacophore angle", "value": 125.76}, {"measurement": "Pharmacophore torsion angle a(H4, O1, O2, H3)", "setting": "[3]", "value": 86.65}, {"measurement": "Pharmacophore torsion angle a(H4, O1, O2, N2)", "setting": "[3]", "value": 121.05}, {"measurement": "Pharmacophore torsion angle a(N1, CA1, O2, H4)", "setting": "[3]", "value": "−97.71"}, {"measurement": "Pharmacophore torsion angle a(O1, H4, O2, CA1)", "setting": "[3]", "value": "−66.34"}, {"measurement": "Pharmacophore torsion angle a(O1, O2, N2, C2)", "setting": "[3]", "value": 136.92}, {"measurement": "Pharmacophore torsion angle a(O1, O2, N2, CA5)", "setting": "[4]", "value": 148.15}, {"measurement": "Pharmacophore protein distance to MET_658 (first MET_658 column)", "setting": "Table A8-6, 6th residue column, nearest protein atom in cell to the left", "value": 2.40}, {"measurement": "Pharmacophore protein distance to MET_658 (second MET_658 column)", "setting": "Table A8-6, 9th residue column, nearest protein atom in cell to the left", "value": 3.49}, {"measurement": "Pharmacophore protein distance to GLY_528", "setting": "[5]", "value": 3.46}, {"measurement": "Pharmacophore protein distance to PHE_529", "setting": "[5]", "value": 2.89}, {"measurement": "Pharmacophore protein distance to PRO_608", "setting": "[5]", "value": 3.89}, {"measurement": "Pharmacophore protein distance to SER_611", "setting": "[5]", "value": 3.04}, {"measurement": "Pharmacophore protein distance to TRP_655", "setting": "Table A8-6, pharmacophore elements C6, CA3, O3, H1, nearest protein atom in cell to the left", "value": 3.24}]}
{"smiles": "Cc1nc(N)ccc1CNC(=O)[C@H](C)NC(=O)[C@H]1C[C@H](Cc2ccccc2Br)CN1.O=C(O)C(F)(F)F.O=C(O)C(F)(F)F", "note": "[1372_B]", "values": [{"measurement": "Ligand-pharmacophore element distance, pharmacophore element C2", "value": 0}, {"measurement": "Ligand-pharmacophore element distance, pharmacophore element C3", "value": 0.1}, {"measurement": "Ligand-pharmacophore element distance, pharmacophore element C4", "value": 0}, {"measurement": "Ligand-pharmacophore element distance, pharmacophore element C5", "value": 0}, {"measurement": "Ligand-pharmacophore element distance, pharmacophore element C6", "value": 1.46}, {"measurement": "Ligand-pharmacophore element distance, pharmacophore element C7", "value": 0}, {"measurement": "Ligand-pharmacophore element distance, pharmacophore element CA1", "value": 0.57}, {"measurement": "Ligand-pharmacophore element distance, pharmacophore element CA2", "value": 1.41}, {"measurement": "Ligand-pharmacophore element distance, pharmacophore element CA3", "value": 0}, {"measurement": "Ligand-pharmacophore element distance, pharmacophore element CA4", "value": 0}, {"measurement": "Ligand-pharmacophore element distance, pharmacophore element CA5", "value": 0}, {"measurement": "Ligand-pharmacophore element distance, pharmacophore element CA6", "value": 0}, {"measurement": "d(C3,CA1)", "setting": "[1]", "value": 2.85}, {"measurement": "d(CA1,N1)2", "setting": "[1]", "value": 1.38}, {"measurement": "d(CA1,O1)", "setting": "[1]", "value": 4.37}, {"measurement": "d(CA1,O2)", "setting": "[1]", "value": 4.00}, {"measurement": "d(H4,O1)", "setting": "[1]", "value": 4.39}, {"measurement": "d(H4,O2)", "setting": "[1]", "value": 3.91}, {"measurement": "d(O1,O2)", "setting": "[1]", "value": 3.35}, {"measurement": "d(N2,C6)", "setting": "[2]", "value": 5.56}, {"measurement": "d(N2,CA2)", "setting": "[2]", "value": 6.02}, {"measurement": "d(O2,H3)", "setting": "[2]", "value": 2.23}, {"measurement": "d(O2,N2)", "setting": "[2]", "value": 2.63}, {"measurement": "a(C3, CA1, O1)", "setting": "Table A6-1 pharmacophore angle", "value": 149.88}, {"measurement": "a(CA1, O1, O2)", "setting": "Table A6-1 pharmacophore angle", "value": 107.52}, {"measurement": "a(O1, O2, H4)", "setting": "Table A6-1 pharmacophore angle", "value": 132.88}, {"measurement": "a(N1, CA1, O1) b)", "setting": "Table A6-1 pharmacophore angle, Methyl-amino-pyridine compounds", "value": 174.13}, {"measurement": "a(O1, O2, H3)", "setting": "Table A6-2 pharmacophore angle", "value": 139.74}, {"measurement": "a(O1, O2, N2)", "setting": "Table A6-2 pharmacophore angle", "value": 143.19}, {"measurement": "a(O2, N2, C6)", "setting": "Table A6-2 pharmacophore angle", "value": 115.79}, {"measurement": "a(O2, N2, CA2)", "setting": "Table A6-2 pharmacophore angle", "value": 157.88}, {"measurement": "Pharmacophore torsion angle a(C3, CA1, O1, H4)", "setting": "[3]", "value": 25.77}, {"measurement": "Pharmacophore torsion angle a(H4, O1, O2, H3)", "setting": "[3]", "value": 99.85}, {"measurement": "Pharmacophore torsion angle a(H4, O1, O2, N2)", "setting": "[3]", "value": 139.62}, {"measurement": "Pharmacophore torsion angle a(N1, CA1, O1, H4)", "setting": "[3]", "value": 4.96}, {"measurement": "Pharmacophore torsion angle a(O1, H4, O2, CA1)", "setting": "[3]", "value": "−82.66"}, {"measurement": "Pharmacophore torsion angle a(O1, O2, N2, C6)", "setting": "[4]", "value": 141.41}, {"measurement": "Pharmacophore torsion angle a(O1, O2, N2, CA2)", "setting": "[4]", "value": 109.73}]}
